These results are taken from ChEMBL document CHEMBL1141238, “Cyclohexyl-linked tricyclic isoxazoles are potent and selective modulators of the multidrug resistance protein (MRP1)” (Bioorg Med Chem Lett, 2005).

Broadly, the EC50 is the concentration needed to bring the measured effect to its halfway point. By IC50 is commonly meant the concentration that gives 50% inhibition. A higher IC50 goes with weaker potency in that assay.

The target of test [1] is T1, Multidrug resistance-associated protein 1 (Homo sapiens, UniProt P33527). The test can be described thus: Inhibitory activity against MRP1 in HeLa-T5 cells. In kind it is functional, cell-based.
Test [2] deals with T1, Multidrug resistance-associated protein 1. The test can be described thus: Inhibitory activity against MRP1-mediated LTC4 uptake into membrane vesicles from HeLa-T5 cells expressing MRP1. In kind it is functional, cell-based.

T1 sequence (P33527 whole entry): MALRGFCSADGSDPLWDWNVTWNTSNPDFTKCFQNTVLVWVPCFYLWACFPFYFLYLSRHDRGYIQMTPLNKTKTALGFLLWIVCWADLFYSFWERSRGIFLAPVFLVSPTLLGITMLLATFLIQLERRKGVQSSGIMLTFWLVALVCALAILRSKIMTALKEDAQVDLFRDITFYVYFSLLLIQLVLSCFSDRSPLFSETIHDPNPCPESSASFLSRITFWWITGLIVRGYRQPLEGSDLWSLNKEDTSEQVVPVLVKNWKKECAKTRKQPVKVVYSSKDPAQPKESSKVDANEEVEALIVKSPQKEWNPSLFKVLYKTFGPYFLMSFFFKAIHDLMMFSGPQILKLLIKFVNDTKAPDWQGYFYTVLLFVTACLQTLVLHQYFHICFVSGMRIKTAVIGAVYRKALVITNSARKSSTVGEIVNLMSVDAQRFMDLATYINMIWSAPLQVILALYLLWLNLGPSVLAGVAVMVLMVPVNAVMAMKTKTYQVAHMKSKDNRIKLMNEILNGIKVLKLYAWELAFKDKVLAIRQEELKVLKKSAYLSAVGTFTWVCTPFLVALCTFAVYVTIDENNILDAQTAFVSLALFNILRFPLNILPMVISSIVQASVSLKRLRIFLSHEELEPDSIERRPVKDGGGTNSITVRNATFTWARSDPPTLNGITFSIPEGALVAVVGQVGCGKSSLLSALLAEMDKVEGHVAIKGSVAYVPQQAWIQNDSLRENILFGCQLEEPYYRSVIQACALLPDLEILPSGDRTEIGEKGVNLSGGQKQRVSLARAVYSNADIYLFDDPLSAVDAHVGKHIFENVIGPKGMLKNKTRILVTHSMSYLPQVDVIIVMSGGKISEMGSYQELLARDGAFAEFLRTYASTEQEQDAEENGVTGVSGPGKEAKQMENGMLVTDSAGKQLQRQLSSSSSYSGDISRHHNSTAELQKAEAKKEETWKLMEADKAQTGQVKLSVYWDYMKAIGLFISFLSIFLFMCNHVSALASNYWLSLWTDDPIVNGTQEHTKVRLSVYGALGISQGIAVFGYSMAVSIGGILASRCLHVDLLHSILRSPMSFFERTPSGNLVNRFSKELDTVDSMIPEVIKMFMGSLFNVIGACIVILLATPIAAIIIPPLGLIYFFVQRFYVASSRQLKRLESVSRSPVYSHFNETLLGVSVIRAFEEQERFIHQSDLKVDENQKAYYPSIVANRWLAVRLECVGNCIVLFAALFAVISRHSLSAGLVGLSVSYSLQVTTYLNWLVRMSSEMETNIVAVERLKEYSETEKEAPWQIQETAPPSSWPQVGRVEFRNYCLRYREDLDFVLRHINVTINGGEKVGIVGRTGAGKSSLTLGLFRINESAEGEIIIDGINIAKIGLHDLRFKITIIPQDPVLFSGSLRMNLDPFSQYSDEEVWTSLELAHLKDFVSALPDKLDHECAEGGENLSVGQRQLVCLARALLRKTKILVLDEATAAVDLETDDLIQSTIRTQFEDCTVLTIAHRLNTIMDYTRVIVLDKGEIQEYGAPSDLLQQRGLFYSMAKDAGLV

In test [1], `COc1cc(C(=O)NC[C@@H]2CCC[C@H](n3c(=O)c4c(C)onc4c4c(Cl)cccc43)C2)cc(OC)c1OC` (racemic) registered an EC50 of 250 nM. Moreover, the concentration for half-maximal inhibition (IC50) in test [2] was 270 nM.
`Cc1onc2c1c(=O)n([C@H]1CCC[C@H](CNC(=O)c3ccccc3)C1)c1cccc(Cl)c21` (racemic) returned an EC50 in test [1] of 640 nM. This molecule yielded an IC50 in test [2] of 1010 nM.
Take `Cc1onc2c1c(=O)n([C@H]1CCC[C@@H](CNC(=O)c3ccccc3)C1)c1cccc(Cl)c21` (racemic): the EC50 in test [1] was found to be 180 nM. Half-maximal inhibition in test [2] (IC50) was put at 38 nM.
In the case of `COc1cc(C(=O)NC[C@H]2CCC[C@H](n3c(=O)c4c(C)onc4c4c(Cl)cccc43)C2)cc(OC)c1OC` (racemic), the EC50 in test [1] was 420 nM.
